From ChEMBL document CHEMBL5380848, “Novel Benzo Five-Membered Heterocycle Derivatives as P-Glycoprotein Inhibitors: Design, Synthesis, Molecular Docking, and Anti-Multidrug Resistance Activity” (J Med Chem, 2023) come the findings set out here.

One may read the inhibition as the relative decrease from the control value, in per cent.

Calls of active or inactive are those of the source. No cut-off for these calls is given here.

One data set relates to MCF7. The experiment in a line: Cytotoxicity against human MCF7 cells assessed as inhibition rate at 5 uM measured after […] hrs by CCK-8 assay relative to control. The data set is classed as functional. On the technique in general: Tetrazolium dyes change colour on reduction, which living cells bring about.
For data set [1], the system named is NCI/ADR-RES. Put plainly: In vivo resistance reversal activity in doxorubicin-resistant human MCF-7/ADR cells xenografted in BALB/c mouse model assessed as reduction in tumor weight at 10 mg/kg for every 2 days once injected through abdominal cavity for 14 days. The data set is classed as functional, organism-based. Conditions: time 14.0 day. (A xenograft is tissue or cells of one species grown in another, often human tumour cells in immunodeficient mice.)

Data set [2] can be described thus: Toxicity in BALB/c mouse xenografted with doxorubicin-resistant human MCF-7/ADR cells assessed as liver morphological changes at 10 mg/kg for every 2 days once injected through abdominal cavity for 14 days by hematoxylin and eosin staining based analysis. Format: organism-based. To be noted: in vivo, ip, 336 h, time 14 day.
The target in data set [3] is T1, ATP-dependent translocase ABCB1 (Homo sapiens, UniProt P08183). Put plainly: Inhibition of P-glycoprotein mediated Rhodamine-123 efflux in doxorubicin-resistant human MCF-7/ADR cells assessed as fluorescence intensity of rhodamine-123 accumulation incubated for 30 mins by flow cytometry analysis. Format: cell-based. To be noted: nci-adr-res, 0.5 h, at 2.5 to 10 µM, dose 2.5-10 µM. A general note: Flow cytometry measures light scatter and fluorescence of single cells or particles in a stream.

Data set [4] has as its system NCI/ADR-RES. The experiment in a line: Effect on ABCC1 gene expression in doxorubicin-resistant human MCF-7/ADR cells at 5 uM incubated for 12 hrs. Format: functional, cell-based.
Data set [5] concerns NCI/ADR-RES. Put plainly: Cytotoxicity against doxorubicin-resistant human MCF-7/ADR cells assessed as inhibition rate at 5 uM measured after […] hrs by CCK-8 assay relative to control. Format: functional.
Data set [6] relates to NCI/ADR-RES. The experiment in a line: Effect on ABCA2 gene expression in doxorubicin-resistant human MCF-7/ADR cells at 5 uM incubated for 12 hrs. The data set is classed as functional, cell-based.
Data set [7] concerns NCI/ADR-RES. The experiment in a line: Effect on ABCF2 gene expression in doxorubicin-resistant human MCF-7/ADR cells at 5 uM incubated for 12 hrs. The data set is classed as functional, cell-based.
A short description of data set [8]: Toxicity in BALB/c mouse xenografted with doxorubicin-resistant human MCF-7/ADR cells assessed as body weight change at 10 mg/kg for every 2 days once injected through abdominal cavity for 14 days. The data set is classed as organism-based. To be noted: in vivo, ip, 336 h, time 14 day.
Data set [9] has as its system NCI/ADR-RES. The experiment in a line: In vivo resistance reversal activity in doxorubicin-resistant human MCF-7/ADR cells xenografted in BALB/c mouse model assessed as potentiation of doxorubicin antitumor effect by measuring reduction in tumor weight at 10 mg/kg for every 2 days once injected through abdominal cavity for 14 days. The data set is classed as functional, organism-based. Conditions: time 14.0 day.

Data set [10] deals with NCI/ADR-RES. The experiment in a line: In vivo resistance reversal activity in doxorubicin-resistant human MCF-7/ADR cells xenografted in BALB/c mouse model assessed as potentiation of doxorubicin antitumor effect by measuring reduction in tumor volume at 10 mg/kg for every 2 days once injected through abdominal cavity for 14 days. Format: functional, organism-based. To be noted: time 14.0 day.

Data set [11] is described as follows: Toxicity in BALB/c mouse xenografted with doxorubicin-resistant human MCF-7/ADR cells assessed as kidney morphological changes at 10 mg/kg for every 2 days once injected through abdominal cavity for 14 days by hematoxylin and eosin staining based analysis. The data set is classed as organism-based. To be noted: in vivo, ip, 336 h, time 14 day.
Data set [12] concerns NCI/ADR-RES. Put plainly: Effect on P-glycoprotein expression in doxorubicin-resistant human MCF-7/ADR cells at 2.5 to 10 uM incubated for 48 hrs by Western blotting analysis. Format: functional, cell-based. Conditions: dose 2.5-10 µM.
Data set [13] has as its system NCI/ADR-RES. Put plainly: Effect on ABCB6 gene expression in doxorubicin-resistant human MCF-7/ADR cells at 5 uM incubated for 12 hrs. The data set is classed as functional, cell-based.
Data set [14] relates to NCI/ADR-RES. Put plainly: Effect on ABCG2 gene expression in doxorubicin-resistant human MCF-7/ADR cells at 5 uM incubated for 12 hrs. Format: functional, cell-based.
Data set [15] concerns NCI/ADR-RES. Put plainly: Effect on ABCD4 gene expression in doxorubicin-resistant human MCF-7/ADR cells at 5 uM incubated for 12 hrs. The data set is classed as functional, cell-based.
The target of data set [16] is T1, ATP-dependent translocase ABCB1. Put plainly: Binding affinity to P-glycoprotein in doxorubicin-resistant human MCF-7/ADR cells assessed as thermal stability measured 40 to 60 degC at 0.5 to 2.5 uM incubated for 30 mins by CETSA. The data set is classed as cell-based. To be noted: nci-adr-res, 0.5 h, dose 0.5-2.5 µM.
Data set [17] is described as follows: Toxicity in BALB/c mouse xenografted with doxorubicin-resistant human MCF-7/ADR cells assessed as lung morphological changes at 10 mg/kg for every 2 days once injected through abdominal cavity for 14 days by hematoxylin and eosin staining based analysis. The data set is classed as organism-based. To be noted: in vivo, ip, 336 h, time 14 day.
For data set [18], the system named is NCI/ADR-RES. Put plainly: Effect on ABCC4 gene expression in doxorubicin-resistant human MCF-7/ADR cells at 5 uM incubated for 12 hrs. The data set is classed as functional, cell-based.
Data set [19] is described as follows: Toxicity in BALB/c mouse xenografted with doxorubicin-resistant human MCF-7/ADR cells assessed as spleen morphological changes at 10 mg/kg for every 2 days once injected through abdominal cavity for 14 days by hematoxylin and eosin staining based analysis. The data set is classed as organism-based. To be noted: in vivo, ip, 336 h, time 14 day.
The nature of data set [20]: Toxicity in BALB/c mouse xenografted with doxorubicin-resistant human MCF-7/ADR cells assessed as heart morphological changes at 10 mg/kg for every 2 days once injected through abdominal cavity for 14 days by hematoxylin and eosin staining based analysis. The data set is classed as organism-based. Conditions: in vivo, ip, 336 h, time 14 day.
Data set [21] concerns the target T1, ATP-dependent translocase ABCB1. Put plainly: Inhibition of P-gp-mediated multidrug resistance in doxorubicin-resistant human MCF7/ADR cells assessed as fold reversal of resistance by measuring doxorubicin IC50 incubated for 48 hrs by CCK-8 assay relative to doxorubicin IC50 in absence of compound. To be noted: nci-adr-res. Format: cell-based.
Data set [22] concerns NCI/ADR-RES. The experiment in a line: In vivo resistance reversal activity in doxorubicin-resistant human MCF-7/ADR cells xenografted in BALB/c mouse model assessed as reduction in tumor volume at 10 mg/kg for every 2 days once injected through abdominal cavity for 14 days. The data set is classed as functional, organism-based. To be noted: time 14.0 day.

T1 sequence (P08183 whole entry): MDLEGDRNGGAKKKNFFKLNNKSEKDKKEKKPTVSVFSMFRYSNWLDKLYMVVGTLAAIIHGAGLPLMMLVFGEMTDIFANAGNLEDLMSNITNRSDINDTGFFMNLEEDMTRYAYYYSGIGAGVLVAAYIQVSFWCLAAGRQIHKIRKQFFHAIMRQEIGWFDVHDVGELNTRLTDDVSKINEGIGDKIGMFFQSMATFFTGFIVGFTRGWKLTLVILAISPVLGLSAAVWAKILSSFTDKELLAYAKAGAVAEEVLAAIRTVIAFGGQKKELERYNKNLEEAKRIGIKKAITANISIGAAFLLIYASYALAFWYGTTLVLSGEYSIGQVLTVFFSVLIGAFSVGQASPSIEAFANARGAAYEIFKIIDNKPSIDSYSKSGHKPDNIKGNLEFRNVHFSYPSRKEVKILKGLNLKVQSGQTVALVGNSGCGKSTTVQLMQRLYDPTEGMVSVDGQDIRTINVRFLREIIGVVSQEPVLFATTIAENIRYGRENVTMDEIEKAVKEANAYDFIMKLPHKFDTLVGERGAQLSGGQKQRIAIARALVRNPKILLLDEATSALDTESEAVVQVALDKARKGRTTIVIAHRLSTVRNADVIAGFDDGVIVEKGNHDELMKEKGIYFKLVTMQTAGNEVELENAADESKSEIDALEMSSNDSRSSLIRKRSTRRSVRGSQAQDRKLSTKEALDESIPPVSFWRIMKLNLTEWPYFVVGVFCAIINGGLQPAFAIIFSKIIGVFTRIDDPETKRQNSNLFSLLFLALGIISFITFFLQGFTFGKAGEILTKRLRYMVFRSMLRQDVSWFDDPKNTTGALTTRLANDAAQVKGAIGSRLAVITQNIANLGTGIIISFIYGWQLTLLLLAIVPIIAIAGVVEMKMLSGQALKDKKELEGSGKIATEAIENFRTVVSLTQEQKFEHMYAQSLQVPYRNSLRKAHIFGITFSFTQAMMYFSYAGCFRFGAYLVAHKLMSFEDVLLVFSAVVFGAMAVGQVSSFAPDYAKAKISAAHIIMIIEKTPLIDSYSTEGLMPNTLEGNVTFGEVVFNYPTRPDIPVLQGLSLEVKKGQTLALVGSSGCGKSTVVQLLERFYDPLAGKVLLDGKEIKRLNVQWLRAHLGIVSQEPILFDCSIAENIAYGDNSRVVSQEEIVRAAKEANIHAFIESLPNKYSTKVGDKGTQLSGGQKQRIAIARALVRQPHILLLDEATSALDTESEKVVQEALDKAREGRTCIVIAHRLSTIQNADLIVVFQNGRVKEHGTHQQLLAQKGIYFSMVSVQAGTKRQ

As to `COc1cc2c(cc1OC)CN(C(=O)c1cc3cc(-c4ccc(NC(=O)c5ccc(Cl)cc5)cc4)ccc3[nH]1)CC2`, the inhibition at 5 µM with MCF7 was 21.7%; in the data set on NCI/ADR-RES [5] it was 25%. In addition, the result with NCI/ADR-RES [1], with NCI/ADR-RES [4], in the data set with NCI/ADR-RES [6], with NCI/ADR-RES [7], in the data set on NCI/ADR-RES [12] and in the data set with NCI/ADR-RES [13] was inactive. In addition, the outcome in the data set with NCI/ADR-RES [14], in the data set on NCI/ADR-RES [15], in the data set on NCI/ADR-RES [18] and with NCI/ADR-RES [22] was inactive. Also, the Activity result is reported as “Non-Toxic” in data set [2]; “Non-Toxic” in data set [8]; “Non-Toxic” in data set [11]; “Active” in data set [16]; “Non-Toxic” in [17]; “Non-Toxic” in data set [19]. Further, the Activity entry in data set [20] was “Non-Toxic”. The “inhibition (INH)” value in data set [3] is given as “Dose-Dependent Effect”. For the same compound, the result in the data set on NCI/ADR-RES [9] and in the data set with NCI/ADR-RES [10] was Active. Further, the “fold change (FC)” value in data set [21] turned out to be 6011.
`COc1ccc(C(=O)Nc2ccc(-c3ccc4[nH]c(C(=O)N5CCc6cc(OC)c(OC)cc6C5)cc4c3)cc2)cc1`: the values for the inhibition at 5 µM with MCF7 and in the data set on NCI/ADR-RES [5] were 19.6% and 23.9%, respectively. The “fold change (FC)” value in [21] came to 78.
In the case of `COc1cc2c(cc1OC)CN(C(=O)c1cc3cc(-c4ccc(NC(=O)c5ccc(Cl)cc5)cc4)ccc3n1Cc1cc(C(F)(F)F)cc(C(F)(F)F)c1)CC2`, the inhibition at 5 µM in the data set on MCF7 was determined as 3.8%; in the data set on NCI/ADR-RES [5], 1.9%. In addition, the “fold change (FC)” value in data set [21] is recorded as 40.9.
